# Source: patent US20240058268A1, “METHODS OF TREATING SKIN DISORDERS” (priority 2021, published 2024)
# System: acne papule biopsies of subjects with moderate inflammatory acne of the back
# Assay: Large scale gene expression profiling of skin biopsies (Affymetrix U133 Plus 2.0)
# Format: in vivo, human
# Procedure: Subjects with moderate inflammatory acne of the back were treated with a 0.005% trifarotene or vehicle cream on dedicated back areas for 27 days, and 4 biopsies were collected on each subject (non-involved skin, acne papule, Trifarotene and vehicle treated site). Large scale gene expression profiling of the biopsies was performed using Affymetrix technology, and treatment specific gene expression profiles were generated using statistical modeling. Clinical investigations were conducted in accordance with the Declaration of Helsinki principles, and the ICH Guideline for Good Clinical Practice. The clinical study received approval from the ethics committee of Brest, France (reference CPP Quest 6-755). This was a post-hoc analysis of data collected from 9 patients aged 18-35 with acne vulgaris (EUDRACT No. 2012-001943-36). In the 4-week open-label clinical study, subjects received once-daily applications of trifarotene 0.005% cream and vehicle cream on the back. Each patient had four biopsies performed, 1 from skin without visible acne lesion (non-involved skin) and three at the site of acne papule, with the following timing: one prior to treatment (day 0), one after vehicle treatment (day 27), and one after trifarotene treatment (day 27). Aubert et al, Br J Dermatol., 2018 August; 179(2):442-456. Samples were collected for large-scale gene expression profiling. Subjects provided written informed consent prior to biopsies. Subjects with moderate inflammatory acne on the back at the screening visit, defined by scores of between 2 and 4 for the whole back, with at least one area scored at 2 and a maximum of three nodules using the ECLA (Acne Lesion Score Scale) scale, were included in the study. Each subject had at least 2 papules 48 hours old, one on each half of the back. Subjects were excluded if they had active skin disease or inflammation other than acne, underlying known conditions which could interfere with study results, history of allergy to local anesthetics and/or topical antiseptics, history of bleeding disorder, or pregnancy/lactation (females). Predefined washout periods were mandated for acne treatments, immunosuppressants, immunomodulators, systemic corticosteroids, and isotretinoin. Study personnel applied treatment to patients' backs with trifarotene cream (right side) or vehicle (left side) once daily for 28 days excluding weekends (n=19 applications). Biopsies of nonlesional areas of trifarotene- and vehicle-treated skin were made under local anaesthesia at day 27 as shown in FIG. 1. Biopsies were stored in RNAlater TissueProtect Tubes (Qiagen, Les Ulis, France). Bioinformatics Analysis: Data analysis was performed using Array Studio software (Omicsoft Corporation, Cary, NC, USA). Affymetrix U133 Plus 2.0 chips (GeneChipTM, Santa Clara, CA, USA) were normalized using the multi-array average (RMA) method (See […], et al. Exploration, normalization, and summaries of high density oligonucleotide array probe level data. Biostatistics, 2003; 4:249-64.) Low expression probe-sets were filtered. Only Affymetrix identifiers with expression ≥2^6 in at least 5 samples in one condition were selected for further statistical analysis, resulting in data for 36245 out of the 54675 probe-sets present on the HG U133 Plus 2.0 array. Mean expression levels were obtained by calculating the geometric means of the RMA-normalized data. A linear model was fitted to the normalized data, and statistical testing of the comparisons of interest were performed using a moderated t-test. Paired-test was used when applicable. P values were adjusted for multiple testing using the Benjamini-Hochberg false discovery rate (FDR) method (See e.g., Benjamini Y, et al., Controlling the false discovery rate in behavior genetics research. Behav Brain Res, 2001; 125:279-84). Candidate differentially expressed genes were selected using a combination of fold-change and […]; genes with absolute fold change>2 and FDA<0.05 were considered as candidate differentially expressed genes. […]
# [1] = lesional skin after 0.005% cream (day 27) vs before treatment
structure (smiles),measurement,setting,value
"CC(C)(C)c1cc(-c2cc(-c3ccc(C(=O)O)cc3)ccc2OCCO)ccc1N1CCCC1 [Trifarotene, 3″-tert-Butyl-4′-(2-hydroxy-ethoxy)-4″-pyrrolidin-1-yl-[1,1′,3′,1″ ]terphenyl-4-carboxylic acid]",number of genes upregulated among the 67 genes regulated,"LINC01224, INA, GABRA4, PXMP4",four
same,number of genes uniquely downregulated (not in spontaneously resolving signature),"absolute fold change>2, genes of inflammatory cell infiltration and extracellular matrix reorganization",67 genes
same,"number of genes in common between acne lesion profile and trifarotene-treated lesion profile, all reversed",acne signature vs trifarotene signature,354 genes
same,Fold Change R3 vs L1: ADAM12 (226777_at),[1],−3.84
same,Fold Change R3 vs L1: ADAMDEC1 (206134_at),[1],−6.29
same,Fold Change R3 vs L1: APELA (1559280_a_at),[1],−2.70
same,Fold Change R3 vs L1: ARHGAP9 (224451_x_at),[1],−2.14
same,Fold Change R3 vs L1: BCAT1 (214452_at),[1],−3.66
same,Fold Change R3 vs L1: BIRC3 (210538_s_at),[1],−2.23
same,Fold Change R3 vs L1: CBLN2 (242301_at),[1],−2.61
same,Fold Change R3 vs L1: CCDC71L (229521_at),[1],−2.26
same,Fold Change R3 vs L1: CCNA1 (205899_at),[1],−3.55
same,Fold Change R3 vs L1: CD37 (204192_at),[1],−2.13
same,Fold Change R3 vs L1: CD69 (209795_at),[1],−2.10
same,Fold Change R3 vs L1: CD80 (1554519_at),[1],−4.03
same,Fold Change R3 vs L1: CD84 (230391_at),[1],−2.57
same,Fold Change R3 vs L1: CLEC4A (221724_s_at),[1],−2.32
same,Fold Change R3 vs L1: CTLA4 (236341_at),[1],−2.54
same,Fold Change R3 vs L1: CYTH4 (219183_s_at),[1],−2.36
same,Fold Change R3 vs L1: DMXL2 (215761_at),[1],−2.35
same,Fold Change R3 vs L1: EVI2B (211742_s_at),[1],−2.35
same,Fold Change R3 vs L1: FERMT3 (223303_at),[1],−2.12
same,Fold Change R3 vs L1: FNDC3B (229865_at),[1],−2.35
same,Fold Change R3 vs L1: GABRA4 (208463_at),[1],2.26
same,Fold Change R3 vs L1: GASK1B (219872_at),[1],−2.30
same,Fold Change R3 vs L1: GLIPR1 (204222_s_at),[1],−2.48
same,Fold Change R3 vs L1: GLIPR2 (225604_s_at),[1],−2.24
same,Fold Change R3 vs L1: GLIS3 (229435_at),[1],−3.07
same,Fold Change R3 vs L1: GPRIN3 (1556698_a_at),[1],−2.27
same,Fold Change R3 vs L1: HLA-DPA1 (213537_at),[1],−2.14
same,Fold Change R3 vs L1: HP (206697_s_at),[1],−2.99
same,Fold Change R3 vs L1: IL2RG (204116_at),[1],−2.28
same,Fold Change R3 vs L1: IL18BP (222868_s_at),[1],−2.37
same,Fold Change R3 vs L1: INA (204465_s_at),[1],2.34
same,Fold Change R3 vs L1: IRF8 (204057_at),[1],−2.02
same,Fold Change R3 vs L1: ITGAX (210184_at),[1],−2.85
same,Fold Change R3 vs L1: KLHL6 (1555275_a_at),[1],−3.05
same,Fold Change R3 vs L1: LINC01224 (233142_at),[1],3.51
same,Fold Change R3 vs L1: LOXL2 (202998_s_at),[1],−2.18
same,Fold Change R3 vs L1: LPXN (216250_s_at),[1],−2.25
same,Fold Change R3 vs L1: LY86 (205859_at),[1],−2.18
same,Fold Change R3 vs L1: MMP12 (204580_at),[1],−11.13
same,Fold Change R3 vs L1: MMP13 (205959_at),[1],−4.3
same,Fold Change R3 vs L1: MMP19 (204575_s_at),[1],−2.71
same,Fold Change R3 vs L1: MSR1 (214770_at),[1],−2.45
same,Fold Change R3 vs L1: NCEH1 (225847_at),[1],−2.70
same,Fold Change R3 vs L1: NRP2 (223510_at),[1],−2.46
same,Fold Change R3 vs L1: P2RY8 (229686_at),[1],−2.23
same,Fold Change R3 vs L1: P2RY10 (236280_at),[1],−2.05
same,Fold Change R3 vs L1: PAPSS2 (203060_s_at),[1],−2.60
same,Fold Change R3 vs L1: PARVG (223562_at),[1],−2.23
same,Fold Change R3 vs L1: PTHLH (211756_at),[1],−2.55
same,Fold Change R3 vs L1: PTPN22 (236539_at),[1],−2.27
same,Fold Change R3 vs L1: PTPRO (208121_s_at),[1],−2.26
same,Fold Change R3 vs L1: PXMP4 (238746_at),[1],2.14
same,Fold Change R3 vs L1: RAC2 (207419_s_at),[1],−2.03
same,Fold Change R3 vs L1: RHOH (204951_at),[1],−2.57
same,Fold Change R3 vs L1: SELP (206049_at),[1],−2.10
same,Fold Change R3 vs L1: SELPLG (209879_at),[1],−2.06
same,Fold Change R3 vs L1: SH2B3 (203320_at),[1],−2.26
same,Fold Change R3 vs L1: SIRPB1 (206934_at),[1],−2.45
same,Fold Change R3 vs L1: SLAMF7 (219159_s_at),[1],−2.49
same,Fold Change R3 vs L1: SLC6A14 (219795_at),[1],−2.04
same,Fold Change R3 vs L1: SNAP25 (202508_s_at),[1],−2.40
same,Fold Change R3 vs L1: TRG-AS1 (239237_at),[1],−2.33
same,Fold Change R3 vs L1: TYROBP (204122_at),[1],−2.39
same,Fold Change R3 vs L1: VCAN (215646_s_at),[1],−2.43
same,Fold Change R3 vs L1: XCL1 (206366_x_at),[1],−2.02
